Test results as given in US20240384268A1, “Oligonucleotides” (Hudson Institute of Medical Research, priority 2021, published 2024).
In the oligonucleotide strings, read from the 5' end, every base follows the letter of its sugar. An asterisk marks phosphorothioate; unmarked linkages are phosphodiester. Other units and linkages are bracketed, terminal groups are in braces. A string of capitals states the bases alone. d = 2'-deoxy (DNA); m = 2'-O-methyl

Target: T1, TLR8 (Homo sapiens, UniProt Q9NR97)
T1 sequence (Q9NR97 27-1041): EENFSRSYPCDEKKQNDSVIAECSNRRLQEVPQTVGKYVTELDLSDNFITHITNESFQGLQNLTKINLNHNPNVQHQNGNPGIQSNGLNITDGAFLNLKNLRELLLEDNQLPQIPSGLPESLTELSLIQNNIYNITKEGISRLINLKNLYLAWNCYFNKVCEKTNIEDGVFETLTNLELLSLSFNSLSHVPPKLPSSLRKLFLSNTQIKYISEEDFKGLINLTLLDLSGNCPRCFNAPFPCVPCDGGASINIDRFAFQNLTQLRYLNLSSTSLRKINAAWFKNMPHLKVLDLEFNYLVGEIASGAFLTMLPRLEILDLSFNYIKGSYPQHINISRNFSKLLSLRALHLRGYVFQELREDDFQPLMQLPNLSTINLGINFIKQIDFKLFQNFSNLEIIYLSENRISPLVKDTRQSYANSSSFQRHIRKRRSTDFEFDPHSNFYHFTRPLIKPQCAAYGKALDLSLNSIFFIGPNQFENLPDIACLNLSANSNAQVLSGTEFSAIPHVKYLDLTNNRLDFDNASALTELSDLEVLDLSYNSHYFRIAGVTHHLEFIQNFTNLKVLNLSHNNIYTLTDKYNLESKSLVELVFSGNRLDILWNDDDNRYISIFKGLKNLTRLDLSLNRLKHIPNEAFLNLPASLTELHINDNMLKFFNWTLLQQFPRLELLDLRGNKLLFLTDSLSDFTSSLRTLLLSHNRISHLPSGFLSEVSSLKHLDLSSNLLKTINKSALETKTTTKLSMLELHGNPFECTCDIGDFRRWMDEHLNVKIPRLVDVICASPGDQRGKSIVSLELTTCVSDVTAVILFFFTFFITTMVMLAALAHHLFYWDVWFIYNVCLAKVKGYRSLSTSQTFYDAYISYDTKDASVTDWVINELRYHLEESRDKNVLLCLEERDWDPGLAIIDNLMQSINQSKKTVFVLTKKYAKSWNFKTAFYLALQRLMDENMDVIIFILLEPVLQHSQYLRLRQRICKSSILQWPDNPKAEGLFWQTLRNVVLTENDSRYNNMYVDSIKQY
Assay: HEK-TLR8 NF-κB-luciferase reporter, R848 or Motolimod stimulation (potentiation or inhibition)
Type: cell-based
Parameters: expressed in transfected cells; host or cells: 293XLhTLR8 (HEK293)
Conditions: for TLR8 100 nM: MOE-modified ASO at 100 nM; for TLR8 100 nM / TLR8 500 nM: averaged NF-κB-Luciferase relative to R848 condition (fold increase); for TLR8 500 nM: MOE-modified ASO at 500 nM; for TLR8-500 nM: averaged NF-κB-Luciferase relative to R848: HEK-TLR8, 500 nM ASO, fold increase relative to R848 without ASO (Alharbi et al., 2020)

| Substance | TLR8 100 nM | TLR8 500 nM | TLR8-500 nM: averaged NF-κB-Luciferase relative to R848 [fold] |
| --- | --- | --- | --- |
| AGTCGTAGTTGCTTCCTAAC (antisense; 2'-MOE modified, pattern not given here) [MB21D1-1181 MOE] | 3.091 | 5.889 | – |
| ATGCCATCCACTTGATAGGC (antisense; 2'-MOE modified, pattern not given here) [EGFR-2874 MOE] | 2.028 | 2.025 | – |
| CGGAGGTCTTGGCTTCGTGG (antisense; 2'-MOE modified, pattern not given here) [MB21D1-525 MOE] | 2.197 | 3.257 | – |
| CGGCATCCACCACGTCGTCC (antisense; 2'-MOE modified, pattern not given here) [EGFR-3267 MOE] | 1.249 | 0.903 | – |
| GCCCATCCATGAGGTCCTGG (antisense; 2'-MOE modified, pattern not given here) [CTNN2B-2545 MOE] | 0.899 | 0.541 | – |
| GCTGACAAAGATTCACTGGT (antisense; 2'-MOE modified, pattern not given here) [HPRT-1353 MOE] | 1.475 | 3.067 | – |
| GGGTATCGAAAGAGTCTGGA (antisense; 2'-MOE modified, pattern not given here) [EGFR-3908 MOE] | 3.138 | 4.073 | – |
| GGTTTTGGCTGGGATCAAGT (antisense; 2'-MOE modified, pattern not given here) [CAMSAP1-4697 MOE] | 5.496 | 6.332 | – |
| GTCCAAGATCAGCAGTCTCA (antisense; 2'-MOE modified, pattern not given here) [CTNN2B-2341 MOE] | 3.021 | 3.364 | – |
| TCCGGCCTCGGAAGCTCTCT (antisense; 2'-MOE modified, pattern not given here) [MB21D1-168 MOE] | 0.816 | 0.781 | – |
| TGGCAGGCTCAGTGATGTCT (antisense; 2'-MOE modified, pattern not given here) [CTNN2B-1642 MOE] | 1.074 | 0.973 | – |
| TGGGCTGGAATCCGAGTTAT (antisense; 2'-MOE modified, pattern not given here) [EGFR-4705 MOE] | 1.452 | 2.058 | – |
| TGGGTTACGGCTCAGTATGG (antisense; 2'-MOE modified, pattern not given here) [CAMSAP1-4295 MOE] | 1.610 | 1.538 | – |
| TTTGCACACTTCGTACCCAA (antisense; 2'-MOE modified, pattern not given here) [CAMSAP1-4916 MOE] | 1.877 | 2.199 | – |
| mA*mA*mA*mA*mG*A*T*T*A*T*C*T*T*C*T*mU*mU*mU*mA*mA (AAAAGATTATCTTCTUUUAA; sugars from the 5' end m5 d10 m5, all phosphorothioate, methylation of C not given here) [[CDKN2B-AS1]2133] | – | – | 4.68 |
| mA*mA*mA*mA*mU*A*A*G*G*G*G*A*A*T*A*mG*mG*mG*mG*mA (mA*mA*mA*mA*mU*dA*dA*dG*dG*dG*dG*dA*dA*dT*dA*mG*mG*mG*mG*mA; antisense) [[CDKN2B-AS1]79] | – | – | 0.71 |
| mA*mA*mA*mG*mA*T*T*A*T*C*T*T*C*T*T*mU*mU*mA*mA*mU (mA*mA*mA*mG*mA*dT*dT*dA*dT*dC*dT*dT*dC*dT*dT*mU*mU*mA*mA*mU) [[CDKN2B-AS1]2132] | – | – | 5.04 |
| mA*mA*mA*mU*mG*T*C*C*T*G*G*C*C*C*T*mC*mA*mC*mU*mG (mA*mA*mA*mU*mG*dT*dC*dC*dT*dG*dG*dC*dC*dC*dT*mC*mA*mC*mU*mG) [[LINC-PINT]148.1] | – | – | 1.56 |
| mA*mA*mG*mA*mU*T*A*T*C*T*T*C*T*T*T*mU*mA*mA*mU*mU (mA*mA*mG*mA*mU*dT*dA*dT*dC*dT*dT*dC*dT*dT*dT*mU*mA*mA*mU*mU) [[CDKN2B-AS1]2131] | – | – | 5.62 |
| mA*mA*mG*mG*mU*G*G*C*C*A*C*A*G*G*C*mA*mA*mC*mG*mU (mA*mA*mG*mG*mU*dG*dG*dC*dC*dA*dC*dA*dG*dG*dC*mA*mA*mC*mG*mU; antisense) [[CDKN2B-AS1]2198] | – | – | 0.78 |
| mA*mA*mU*mA*mU*C*T*G*C*T*G*C*C*C*A*mC*mC*mU*mU*mC (mA*mA*mU*mA*mU*dC*dT*dG*dC*dT*dG*dC*dC*dC*dA*mC*mC*mU*mU*mC; antisense) [[CDKN2B-AS1]832] | – | – | 4.45 |
| mA*mA*mU*mU*mU*A*A*A*G*C*A*T*G*A*A*mU*mA*mU*mU*mA (mA*mA*mU*mU*mU*dA*dA*dA*dG*dC*dA*dT*dG*dA*dA*mU*mA*mU*mU*mA) [[CDKN2B-AS1]645] | – | – | 5.02 |
| mA*mC*mC*mC*mU*T*C*T*C*T*C*T*G*G*T*mC*mC*mC*mA*mU (mA*mC*mC*mC*mU*dT*dC*dT*dC*dT*dC*dT*dG*dG*dT*mC*mC*mC*mA*mU; antisense) [[LINC-PINT]115] | – | – | 7.57 |
| mA*mG*mA*mA*mA*G*A*A*G*C*A*A*A*G*A*mU*mU*mC*mA*mA (AGAAAGAAGCAAAGAUUCAA; sugars from the 5' end m5 d10 m5, all phosphorothioate, methylation of C not given here) [[CDKN2B-AS1]1519] | – | – | 2.78 |
| mA*mG*mA*mU*mU*A*T*C*T*T*C*T*T*T*T*mA*mA*mU*mU*mU (AGAUUATCTTCTTTTAAUUU; sugars from the 5' end m5 d10 m5, all phosphorothioate, methylation of C not given here) [[CDKN2B-AS1]2130] | – | – | 6.26 |
| mA*mG*mC*mC*mG*A*A*C*A*G*A*A*G*G*A*mG*mC*mG*mU*mC (AGCCGAACAGAAGGAGCGUC; sugars from the 5' end m5 d10 m5, all phosphorothioate, methylation of C not given here) [[LINC-PINT]587 KL] | – | – | 3.73 |
| mA*mG*mG*mA*mU*T*A*A*A*A*C*A*G*A*T*mU*mA*mA*mU*mA (mA*mG*mG*mA*mU*dT*dA*dA*dA*dA*dC*dA*dG*dA*dT*mU*mA*mA*mU*mA) [[CDKN2B-AS1] 1775] | – | – | 2.63 |
| mA*mG*mG*mC*mC*T*C*C*A*G*T*G*T*C*T*mU*mC*mU*mC*mC (mA*mG*mG*mC*mC*dT*dC*dC*dA*dG*dT*dG*dT*dC*dT*mU*mC*mU*mC*mC; antisense) [[CDKN2B-AS1]2218] | – | – | 4.66 |
| mA*mU*mA*mU*mC*T*G*C*T*G*C*C*C*A*C*mC*mU*mU*mC*mU (AUAUCTGCTGCCCACCUUCU; antisense; sugars from the 5' end m5 d10 m5, all phosphorothioate, methylation of C not given here) [[CDKN2B-AS1]831] | – | – | 5.89 |
| mA*mU*mG*mA*mC*A*T*T*T*C*G*T*G*G*C*mU*mC*mC*mU*mA (mA*mU*mG*mA*mC*dA*dT*dT*dT*dC*dG*dT*dG*dG*dC*mU*mC*mC*mU*mA) [[LINC-PINT]524.1] | – | – | 1.20 |
